Where “and” joins values, the source holds several entries; their conditions need not be identical. Identical values can stand only once.
What was measured:
[1] = system: Escherichia coli (E. coli—ATCC #10536); experiment: Synergy test: high resolution MBC microtiter plate assay, phosphate buffer containing 35% dipropylene glycol, 15 seconds contact; format: cell-based; settings: E. coli 10536; for MBC of the component acting alone (QA / QB; Qa or Qb where the other component is 0): complete kill in 15 seconds
[2] = system: Escherichia coli (E. coli—ATCC #10536); experiment: Automated assessment of efficacy in surfactant base (2.85% sodium cocoyl glycinate and 1.85% sodium lauroamphoacetate, pH 10.0), 15 seconds exposure; format: cell-based; settings: for No. of replicates showing growth (out of 4) / Δ OD 450 nm = OD450 (time = 16 hours) − OD450 (time zero), Mean / Δ OD 590 nm OD590 (time = 16 hours) − OD590 (time zero), Mean: alone, model surfactant solution
Method: Test Methodology for Automated Assessment of Efficacy in Surfactant Base Microbiocidal Activity of Actives as Per the Invention in a Model Surfactant Medium Test Methodology for Automated Assessment of Efficacy in Surfactant Base In these examples, the efficacy of combinations of actives were tested in a surfactant cleansing formulation comprising 2.85% sodium cocoyl glycinate and 1.85% sodium lauroamphoacetate. This corresponds to a 50% in use dilution with water of a neat formulation containing 5.7% cocoyl glycinate and […] % sodium, lauroamphoacetate during hand washing. Solutions were prepared such that the concentrations of the surfactant components and test actives were 1.1× the final desired concentration in order to allow for dilution with the bacterial inoculum in the test. The solutions were manually adjusted to pH 10.0 by dropwise addition of sodium hydroxide solution, as measured with a pH meter at ambient temperature. The efficacy of the combinations of the present invention was determined against Escherichia coli (E. coli—ATCC #10536), at a concentration of approximately 1×10^8 bacteria per mL. Tests were conducted using standard microtiter plate assays using an automated liquid handling system. 270 μl of the surfactant test solution was pipetted into each well of the microtitre plate and 30 μl of the bacterial suspension was then added. Alter exactly 15 seconds of bacterial exposure, a 30 μl volume of bacterial cells was withdrawn and transferred to 270 μl of D/E quench solution. After 5 minutes in the D/E quench, the optical density (OD) was measured for each plate in turn at two specific wavelengths (450 nm and 590 nm). These provide a dual check of antimicrobial activity, as the OD450 reading is specific for the yellow colour of D/E quench when bacterial growth is observed, whereas OD590 is specific for the initial purple colour of the D/E quench which is retained if no bacterial growth is observed. After the time zero OD measurements, plates were then incubated at 37° C. overnight (16 hours) before repeating the OD measurements. Delta OD values were calculated by subtracting […]. Bacterial growth is observed as an increase in OD450 and a decrease in ΔOD590. To identify antibacterially efficacious systems (those preventing appreciable bacterial growth after incubation), the following threshold changes in OD readings have been adopted: if (1). OD450 increases by less than 0.2 absorbance unit on incubation and (2). OD590 decreases by less than 0.35 unit on incubation. Conversely, where OD450 increases by more than 0.2 AU and OD590 decreases by more than 0.35 unit after incubation, corresponding to a colour shift from purple to yellow, the test system allows bacterial growth and is not deemed efficacious. Four replicate measurements in the same plate have been made for each test system. The number of replicate wells showing either bacterial growth or no growth is also readily assessed by eye by following the colour change. Dose responses for individual components and binary mixtures of actives at a fixed concentration ratio were generated by sequential dilution of liquors with further surfactant solution to obtain a series of endpoints. […] In some selected cases, the combinations were also tested at the weight ratio 1:1.

Cc1ccc(C(C)C)c(O)c1O [3-isopropyl-6-methylbenzene-1,2-diol]
SI (Synergy Index) ([1]; at Qa and Qb, less than one = synergy): 1.00 | MBC of the component acting alone (QA / QB; Qa or Qb where the other component is 0) [1]: 1.0 weight % and 0.8 weight % | MBC of the component acting alone (QA / QB; Qa or Qb where the other component is 0) ([1]; listed as 3-isopronyl-6-methylbenzene-1,2-diol): 0.8 weight % | No. of replicates showing growth (out of 4) ([2]; 0.175% w/v): 4 | Δ OD 450 nm = OD450 (time = 16 hours) − OD450 (time zero), Mean ([2]; 0.175% w/v): −0.51 | Δ OD 590 nm OD590 (time = 16 hours) − OD590 (time zero), Mean ([2]; 0.175% w/v): 0.53 | No. of replicates showing growth (out of 4) ([2]; 0.2% w/v): 4 | Δ OD 450 nm = OD450 (time = 16 hours) − OD450 (time zero), Mean ([2]; 0.2% w/v): −0.53 | Δ OD 590 nm OD590 (time = 16 hours) − OD590 (time zero), Mean ([2]; 0.2% w/v): 0.53 | No. of replicates showing growth (out of 4) ([2]; […] w/v): 4 | Δ OD 450 nm = OD450 (time = 16 hours) − OD450 (time zero), Mean ([2]; […] w/v): −0.50 | Δ OD 590 nm OD590 (time = 16 hours) − OD590 (time zero), Mean ([2]; […] w/v): 0.56 | MBC (minimum biocidal concentration) ([2]; in 2.85% sodium cocoyl glycinate + 1.85% sodium lauroamphoacetate solution at pH 10, E. coli): >0.2 % w/v
